Consider 16 molecules from PMC3124785 (ACS chemical neuroscience, 2011).

In one data set the test system is primary cortical neurons. The note with it: for effect of GPR30 antagonist G15 on neuroprotection: G15 100 nM pre-treatment, test compounds 100 nM; for neuroprotection against OGD by BT-SERM analogs and derivatives: all 100 nM, MTT assay; for neuroprotection against OGD at lower concentrations: 1 μM or below; for effect of G15 on neuroprotection by antioxidants / sulforaphane: G15 pre-treatment (-45 min); for neuroprotection against OGD by antioxidants / sulforaphane: concentration series; for neuroprotection against OGD, initial screen of BT-SERMs: BT-SERMs 100 nM; for concentration giving equivalence to E2 (10 nM) in neuroprotection: MTT cell viability assay, 2 h OGD, 24 h reperfusion. A general note: Formazan colour is commonly taken as a measure of viable cells.

In a further data set the target is T1, ER (Homo sapiens, UniProt P03372).
T1 sequence (P03372 1-595): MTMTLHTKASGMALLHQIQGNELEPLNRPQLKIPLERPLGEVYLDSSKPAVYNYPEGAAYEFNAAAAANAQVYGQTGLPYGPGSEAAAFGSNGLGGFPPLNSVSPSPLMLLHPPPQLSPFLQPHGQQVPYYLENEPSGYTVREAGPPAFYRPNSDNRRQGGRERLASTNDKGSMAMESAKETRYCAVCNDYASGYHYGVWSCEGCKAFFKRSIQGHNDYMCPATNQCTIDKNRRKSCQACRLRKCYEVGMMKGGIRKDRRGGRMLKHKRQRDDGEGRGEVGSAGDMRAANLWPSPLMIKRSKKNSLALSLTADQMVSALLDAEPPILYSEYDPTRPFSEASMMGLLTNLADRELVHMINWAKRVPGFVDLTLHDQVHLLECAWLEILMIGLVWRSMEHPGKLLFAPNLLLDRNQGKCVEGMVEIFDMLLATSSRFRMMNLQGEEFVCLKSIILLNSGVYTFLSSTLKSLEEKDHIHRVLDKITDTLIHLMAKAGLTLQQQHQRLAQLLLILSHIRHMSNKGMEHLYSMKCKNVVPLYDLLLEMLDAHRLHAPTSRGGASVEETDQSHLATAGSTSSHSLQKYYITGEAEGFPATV
The note with it: Fig. 1; cited from earlier work.

The subject of a further data set is ERβ. The note with it: cited from earlier work.
The test system of another data set is ERα. The note with it: cited from earlier work.
The next data set concerns the target iNOS. The note with it: read-out: Ki iNOS; cited from earlier work.

“Also recorded” adds a separate entry of the source. Read-outs that look alike come from different tables or passages of the source.

As usually defined, the Ki is the dissociation constant of the complex between target and ligand, obtained from inhibition or displacement.

In the case of `Oc1cccc(-c2cn(-c3cccc(O)c3)nn2)c1` [3,3-TDP], the “effect of GPR30 antagonist G15 on neuroprotection” value (shortened to “effect of GPR30 antagonist G15”) with primary cortical neurons (E2 10 nM) is “GPR30-dependent”. In the data set on primary cortical neurons, the “neuroprotection against OGD by BT-SERM analogs and derivatives” value is reported as “neuroprotective”.

As for `Oc1ccc(-c2cn(-c3ccc(O)cc3)nn2)cc1` [4,4-TDP], the “neuroprotection against OGD by BT-SERM analogs and derivatives” value in the data set with primary cortical neurons is given as “no neuroprotective activity”.

For `Cc1cc(C(C)(C)C)c(O)c(C(C)(C)C)c1` [BHT, butylated hydroxtoluene], in the data set with primary cortical neurons (MTT and LDH), the “neuroprotection against OGD at lower concentrations” value is listed as “neuroprotective” and the “neuroprotection against OGD by antioxidants / sulforaphane” value is recorded as “neuroprotective”. Also, the “effect of G15 on neuroprotection by antioxidants / sulforaphane” value (from here on “effect … by antioxidants / sulforaphane”) with primary cortical neurons is listed as “insensitive to antagonism by G15”. Also, the “effect in OGD neurons at higher concentration” value in the data set on primary cortical neurons (higher concentration (10 μM), MTT and LDH) is “neurotoxicity; also recorded: neurotoxic”.

In the case of `Oc1ccc(-c2cc3ccc(O)cc3s2)cc1` [BTC, 2-(4-hydroxyphenyl)-benzo[b]thiophen-6-ol], the “ER activity in cell culture” value at ER is reported as “ER agonist activity”. Besides, in the data set on ERβ (ERβ versus ERα, Fig. 1), the ER subtype selectivity entry is on record as “selectivity for ERβ”. The “neuroprotection against OGD, initial screen of BT-SERMs” value (shortened to “neuroprotection … of BT-SERMs”) in the data set with primary cortical neurons (MTT and LDH) is recorded as “active”. Further, the “effect … by antioxidants / sulforaphane” value with primary cortical neurons is “did not inhibit neuroprotection”.

`Oc1ccc(-c2sc3cc(O)ccc3c2Oc2ccc(OCCN3CCCCC3)cc2)cc1` [DMA, [6-hydroxy-3-[4-[2-(1-piperidinyl)-ethoxy]phenoxy]-2-(4-hydroxyphenyl)]benzo[b]thiophene]: the “binding to ERα” value in the data set on ERα is “high affinity”. In addition, the “binding to ERβ” value in the data set on ERβ is on record as “high affinity”. In addition, the “neuroprotection … of BT-SERMs” value with primary cortical neurons (MTT and LDH) was “neuroprotective”. The “concentration giving equivalence to E2 (10 nM) in neuroprotection” value in the data set on primary cortical neurons is 28 nM.

For the molecule `C[C@]12CC[C@@H]3c4ccc(O)cc4CC[C@H]3[C@@H]1CC[C@@H]2O` [E2, 17β-estradiol], the “effect of GPR30 antagonist G15” value in the data set with primary cortical neurons (E2 10 nM) was “blocked neuroprotection”. In addition, the “effect of ER antagonist ICI 182 780 on neuroprotection” value in the data set with primary cortical neurons (ICI 1 μM 45 min prior to OGD, SERMs 100 nM, E2 10 nM) is “block E2 mediated neuroprotection”. Also, the “greater cell death in the vehicle treated group than the E2 treated group” value in the data set with primary cortical neurons (OGD 2 h, recovery 24 h) is on record as 30-40%. In addition, the “neuroprotection against OGD by estrogens” value in the data set with primary cortical neurons (estrogens 10 nM, E2-BSA 10 ng/mL, MTT and LDH) is “neuroprotective”.

In the case of `Oc1ccc(Oc2c(-c3ccc(F)cc3)sc3cc(O)ccc23)cc1` [HP-BTF, 2-(4-fluorophenyl)-3-(4-hydroxyphenoxy)benzo[b]thiophen-6-ol], the “effect of GPR30 antagonist G15” value in the data set on primary cortical neurons (E2 10 nM) is listed as “GPR30-dependent”. Besides, in the data set with primary cortical neurons, the “neuroprotection against OGD by BT-SERM analogs and derivatives” value is “neuroprotective”.

Turning to `COC(=O)[C@@H](N)CCCNC(N)=N[N+](=O)[O-]` [L-NAME, L-nitro-arginine methyl ester], the “effect of L-NAME on neuroprotection” value with primary cortical neurons (L-NAME 100 μM, alone or in combination with estrogen and SERMs) is “no significant effect”.

In the case of `N=C(NCCC[C@H](N)C(=O)O)N[N+](=O)[O-]` [N^G-nitro-L-arginine], the Ki at iNOS was 4 µM.

Regarding `O=C(c1ccc(OCCN2CCCCC2)cc1)c1c(-c2ccc(O)cc2)sc2cc(O)ccc12` [Ral, raloxifene], the “neuroprotection … of BT-SERMs” value in the data set with primary cortical neurons (MTT and LDH) is listed as “neuroprotective”. Moreover, the “concentration giving equivalence to E2 (10 nM) in neuroprotection” value in the data set with primary cortical neurons is 68 nM; in the data set on primary cortical neurons (listed as raloxifene), 62 nM.

Consider `Cc1ccc(C(=O)c2c(-c3ccc(O)cc3)sc3cc(O)ccc23)cc1` [Tol-BTC, (6-hydroxy-2-(4-hydroxyphenyl)benzo[b]thiophen-3-yl)(p-tolyl)methanone], for which the “neuroprotection against OGD by BT-SERM analogs and derivatives” value in the data set with primary cortical neurons is “neuroprotective”.

For `Cc1c(C)c2c(c(C)c1O)CCC(C)(C(=O)O)O2` (centres unmarked) [Trolox], the “effect … by antioxidants / sulforaphane” value in the data set on primary cortical neurons is given as “did not inhibit neuroprotection; also recorded: insensitive to antagonism by G15”. The “neuroprotection against OGD by antioxidants / sulforaphane” value in the data set on primary cortical neurons (MTT and LDH) is recorded as “neuroprotective; also recorded: concentration dependent neuroprotection”.

For `COc1ccc(-c2sc3cc(O)ccc3c2Oc2ccc(OCCN3CCCCC3)cc2)cc1` [arzoxifene], the “neuroprotection … of BT-SERMs” value with primary cortical neurons (MTT and LDH) was “inactive”.

Turning to `O=C(CCCCCC(=O)c1c(-c2ccc(O)cc2)sc2cc(O)ccc12)c1c(-c2ccc(O)cc2)sc2cc(O)ccc12` [bisBTChd, 1,7-bis(6-hydroxy-2-(4-hydroxyphenyl)benzo[b]thiophen-3-yl)heptane-1,7-dione], the “neuroprotection against OGD by BT-SERM analogs and derivatives” value in the data set on primary cortical neurons is reported as “neuroprotective”.

As for `CC(C)c1c(-c2ccc(O)cc2)sc2cc(O)ccc12` [iPr-BTC, 2-(4-hydroxyphenyl)-3-isopropylbenzo[b]thiophen-6-ol], the “neuroprotection against OGD by BT-SERM analogs and derivatives” value in the data set with primary cortical neurons is “neuroprotective”.

In the case of `C[S+]([O-])CCCCN=C=S` (centres unmarked) [sulforaphane], the “neuroprotection against OGD at lower concentrations” value in the data set with primary cortical neurons (MTT and LDH) is recorded as “neuroprotection”; with primary cortical neurons (MTT and LDH, listed as Sulforaphane) it was “neuroprotective”. In addition, the “effect … by antioxidants / sulforaphane” value in the data set on primary cortical neurons is reported as “did not inhibit neuroprotection; also recorded: insensitive to antagonism by G15”.
